Data taken from ChEMBL document CHEMBL1126228, “2,3:18,19-dioxidosqualene: synthesis and activity as a potent inhibitor of 2,3-oxidosqualene-lanosterol cyclase in rat liver microsomes” (Bioorg Med Chem Lett, 1992).

Target: T1, Lanosterol synthase (Rattus norvegicus, UniProt P48450)
T1 sequence (P48450 whole entry): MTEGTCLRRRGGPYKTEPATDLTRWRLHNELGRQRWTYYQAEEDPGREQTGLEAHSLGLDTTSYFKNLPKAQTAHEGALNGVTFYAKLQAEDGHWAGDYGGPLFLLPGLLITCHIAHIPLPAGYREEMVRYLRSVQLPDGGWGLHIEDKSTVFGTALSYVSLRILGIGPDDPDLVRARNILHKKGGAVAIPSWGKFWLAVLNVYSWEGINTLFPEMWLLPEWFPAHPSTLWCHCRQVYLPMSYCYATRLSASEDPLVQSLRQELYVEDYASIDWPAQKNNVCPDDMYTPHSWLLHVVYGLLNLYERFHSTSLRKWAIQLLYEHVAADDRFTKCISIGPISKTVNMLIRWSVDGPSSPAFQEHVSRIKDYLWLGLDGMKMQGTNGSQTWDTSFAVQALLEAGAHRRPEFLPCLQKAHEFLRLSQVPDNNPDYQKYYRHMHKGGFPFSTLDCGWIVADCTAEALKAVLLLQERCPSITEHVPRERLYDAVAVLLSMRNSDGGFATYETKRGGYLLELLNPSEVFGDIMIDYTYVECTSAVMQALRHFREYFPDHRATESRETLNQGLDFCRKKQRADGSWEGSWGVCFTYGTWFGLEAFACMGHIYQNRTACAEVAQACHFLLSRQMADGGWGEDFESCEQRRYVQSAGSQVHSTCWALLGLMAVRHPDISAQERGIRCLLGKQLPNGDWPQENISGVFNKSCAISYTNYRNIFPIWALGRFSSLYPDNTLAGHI
Test: Compound was evaluated for inhibitory activity against 2,3-oxidosqualene-lanosterol cyclase in rat liver microsomes
Parameters: species or system Microsome

Row | IC50 | Structure (SMILES)
1 | 83.5 µM | CC(C)=CCC/C(C)=C/CC/C(C)=C/CC/C=C(\C)CCC1OC1(C)CCC=C(C)C (stereo not drawn)
2 | 0.11 µM | CC(C)=CCCC1(C)OC1CC/C(C)=C/CC/C=C(\C)CC/C=C(\C)CCC1OC1(C)C (stereo not drawn)
3 | 142 µM | C/C(=C\CC/C=C(\C)CC/C=C(\C)CCC1OC1(C)C)CC/C=C(\C)CCC1OC1(C)C (stereo not drawn)
